Results as given in PMC8228600, “Design, Synthesis, In Vitro and In Vivo Evaluation of Heterobivalent SiFAlin-Modified Peptidic Radioligands Targeting Both Integrin αvβ3 and the MC1 Receptor—Suitable for the Specific Visualization of Melanomas?” (Pharmaceuticals, 2021).
Read-outs that look alike come from different tables or passages of the source.

How the values were obtained:
[1] = Stability of radiotracers in human serum (radio-HPLC); assay type: in vitro ADME; conditions: 37 °C, 120 min, mean ± SD, read-out: Stability: intact radiotracer after 120 min of incubation in human serum
Method: In addition to the investigation of the radiotracers’ lipophilicity, their stability in human serum was evaluated in order to determine possible stability issues of the newly developed agents. For this purpose, the respective ^18F-labeled HBPLs were incubated in human serum at 37 °C for 120 min. The results of these experiments are summarized in Table 1, and the corresponding radio-HPLC chromatograms for [^18F]2 as representative examples for all compounds studied are depicted in Figure 3A (see Supplementary Materials, Figure S91 for the results obtained for the other radioligands). In Figure 3B, the portions of intact radiotracer over the course of the stability experiments are depicted.
The radiotracer solutions were first diluted with 0.9% NaCl solution to give a final EtOH concentration of <10%. Then, 6 × 25 μL radiotracer solution was added to 6 × 100 μL human serum and incubated at 37°C for 120 min. At defined time points (5, 15, 30, 60, 90 and 120 min), 125 μL EtOH was added to one of the mixtures and the precipitation of serum proteins was supported by ice-cooling for 2 min. After centrifugation at 13.4 rpm for 2 min, the supernatant was analyzed by analytical radio-HPLC (0–100% MeCN + 0.1% TFA in 5 min). The experiment was performed for each compound trice by three independent experiments.

[2] = Ex vivo biodistribution: uptake in B16F10 tumors and tumor-to-organ ratios; set-up: species or system nude mice (Balb/cAnNRj-Foxn1nu/nu); conditions: male, Balb/cAnNRj-Foxn1nu/nu (nude), mouse, iv, total radioactivity; for tissue uptake: B16F10 tumor (MC1R-positive); for tissue uptake / tissue uptake at 1.5 h: ex vivo after PET/CT scan, i.v., n = 3; for tissue to tissue ratio: ex vivo biodistribution, mean (n = 3) ± SD; for tissue uptake at 1.5 h: B16F10 tumor
Method: (§1) For the evaluation of the in vivo pharmacokinetics, the two most promising HBPLs—[^18F]2 with the highest affinity to both target receptors and [^18F]4 with the highest hydrophilicity and still reasonable binding affinities—were selected. For PET/CT imaging, 6-week-old male nude mice (Balb/cAnNRj-Foxn1^nu/nu) were subcutaneously injected with 5 × 10^5 B16F10 cells into the right flank and 2.0–2.5 × 10^6 U87MG cells into the left flank to generate the respective receptor-positive tumors. When the tumors reached a sufficient size for imaging, each mouse was administered 4.15 ± 2.28 MBq of [^18F]2 or 3.95 ± 2.06 MBq of [^18F]4 via the lateral tail vein under isoflurane anesthesia. To determine the receptor specificity of both peptide parts of the labeled HBPLs and their relative contribution to overall tumor uptake, blocking experiments were also performed. […] After i.v. injection of the tracers, a dynamic PET scan, followed by a CT scan, was performed. The resulting PET/CT images and time–activity curves (TACs) are depicted in Figure 6, Figure 7 and Figure 8. After completion of the diagnostic scans, the mice were sacrificed, their organs (blood, spleen, liver, kidney, pancreas, lung, heart, brain, bone, muscle, tail, tumors, stomach, colon and small intestine) were collected and measured in a γ-counter for ex vivo biodistribution (see Supplementary Materials Table S1 for detailed results).
(§2) Each male nude mouse (six weeks old) was injected subcutaneously with 5 × 10^5 B16F10 cells into the right flank and 2.0–2.5 × 10^6 U87MG cells into the left flank. The health status and tumor growth of the mice were monitored regularly until the animals could be examined after 15–21 days, depending on the tumor size. For the in vivo experiments, the ^18F-radiolabeled compound was diluted in 0.9% saline to give a final EtOH concentration of <10%. Each mouse was injected with 4.15 ± 2.28 MBq of [^18F]2 or 3.95 ± 2.06 MBq of [^18F]4 via the lateral tail vein under isoflurane anesthesia. […] Each ^18F-labeled compound was studied with or without blocking in at least three mice. Mice were measured under isoflurane anesthesia in a small PET/SPECT/CT animal imaging system. First, a dynamic PET scan was performed over 90 min and the scan was framed in 29 timeframes (10 × 1 min, 10 × 2 min, 6 × 5 min, 3 × 10 min). Images were reconstructed using 12 iterations, a maximum likelihood expectation maximization (MLEM) algorithm including corrections for scattered radiation and decay and a voxel size of 0.5 mm. All PET scans were immediately followed by CT acquisition at a voltage of 45 kV and a current of 400 μA. The images were reconstructed using the filtered back projection (FBP) algorithm with a voxel size of 250 μm. The analysis of the data, including the generation of TACs of the kidneys, liver and tumors and the MIPs, was performed via PMOD (v3.8). For ex vivo biodistribution, the mice were sacrificed directly after the PET/CT scan. Organs (blood, spleen, liver, kidneys, pancreas, lungs, heart, brain, bone, muscle, tail, tumors, stomach, colon and small intestine) were collected, weighed and their radioactivity measured in a γ-counter. The percentage injected dose per gram (% ID/g) of each tissue was calculated from the determined values, organ weights, reference values and injected activity.

[3] = tested on: MC1R-positive B16F10 tumors; assay: as above; set-up: species or system nude mice (Balb/cAnNRj-Foxn1nu/nu); conditions: NDP blocking (20 μg coinjected); ex vivo after PET/CT scan; i.v.; n = 3
Method: as §1, §2

[4] = NDP blocking (20 μg coinjected)
[5] = c(RGDyK) blocking (200 μg coinjected)
[6] = double blocking (NDP + c(RGDyK))
[7] = B16F10 tumor / blood, without blocking, read-out: tumor/blood ratio, B16F10
[8] = B16F10 tumor / kidneys, without blocking, read-out: tumor/kidneys ratio, B16F10
[9] = B16F10 tumor / liver, without blocking, read-out: tumor/liver ratio, B16F10
[10] = B16F10 tumor / muscle, without blocking, read-out: tumor/muscle ratio, B16F10

Compound	remaining at 2 h [1]	tissue uptake [2, 4]	tissue uptake [2, 5]	tissue uptake [2, 6]	tissue uptake ([2]; without blocking)	tissue to tissue ratio [2, 7]	tissue to tissue ratio [2, 8]	tissue to tissue ratio [2, 9]	tissue to tissue ratio [2, 10]	tissue uptake at 1.5 h ([2]; without blocking)	ID/g, B16F10 tumor [3]
CCCC[C@H](NC(=O)CNC(=O)CNC(=O)CCOCCOCCOCCOCCC(=O)NCCCN(CCCNC(=O)CCOCCOCCOCCOCCC(=O)NCCCC[C@@H]1NC(=O)[C@@H](Cc2ccccc2)NC(=O)[C@H](CC(=O)O)NC(=O)CNC(=O)[C@H](CCCNC(=N)N)NC1=O)CC(=O)N[C@@H](CCCCNC(=O)CCC[N+](C)(C)Cc1ccc([Si](F)(C(C)(C)C)C(C)(C)C)cc1)C(N)=O)C(=O)N[C@H]1CC(=O)NCCCC[C@@H](C(N)=O)NC(=O)[C@H](Cc2c[nH]c3ccccc23)NC(=O)[C@H](CCCNC(=N)N)NC(=O)[C@@H](Cc2ccccc2)NC(=O)[C@H](Cc2c[nH]cn2)NC1=O [[^18F]2]	85.4 ± 2.8%	1.83 ± 0.24 %ID/g	1.98 ± 0.18 %ID/g	1.14 ± 0.42 %ID/g	2.32 ± 0.49 %ID/g	2.42 ± 0.73	0.19 ± 0.1	0.16 ± 0.11	0.68 ± 0.41	2.32 ± 0.49 %ID/g	1.83 ± 0.24 % ID/g
CCCC[C@H](NC(=O)CNC(=O)CNC(=O)CCOCCOCCOCCOCCOCCOCCOCCOCCOCCC(=O)NCCCN(CCCNC(=O)CCOCCOCCOCCOCCOCCOCCOCCOCCOCCC(=O)NCCCC[C@@H]1NC(=O)[C@@H](Cc2ccccc2)NC(=O)[C@H](CC(=O)O)NC(=O)CNC(=O)[C@H](CCCNC(=N)N)NC1=O)CC(=O)N[C@@H](CCCCNC(=O)CCC[N+](C)(C)Cc1ccc([Si](F)(C(C)(C)C)C(C)(C)C)cc1)C(N)=O)C(=O)N[C@H]1CC(=O)NCCCC[C@@H](C(N)=O)NC(=O)[C@H](Cc2c[nH]c3ccccc23)NC(=O)[C@H](CCCNC(=N)N)NC(=O)[C@@H](Cc2ccccc2)NC(=O)[C@H](Cc2c[nH]cn2)NC1=O [[^18F]4]	83.6 ± 0.8%	1.33 ± 0.27 %ID/g	2.29 ± 0.24 %ID/g	2.49 ± 0.09 %ID/g	2.58 ± 0.86 %ID/g	4.36 ± 1.37	0.38 ± 0.24	0.36 ± 0.23	38.6 ± 9.24	2.58 ± 0.86 %ID/g	1.33 ± 0.27 % ID/g
